Reference: patent publication US5096911A, “Alteration of rate and character of hair growth” (priority 1990, dated 1992)
One block for each compound: values may come before it.

Legend:
[1] = system: Hamster flank organ hair; experiment: Inhibition of hair growth: hamster flank organ hair mass after topical application; type: in vivo, male intact Golden Syrian hamsters; settings: three weeks; for Percent Inhibition (of hair mass vs vehicle-treated organ) / Hamster Flank Organ Hair Mass, Treated (mean): once a day, five days a week
Text: Acivicin (Sigma Chemical Co., St. Louis) was mixed with separate portions of the foregoing vehicle to provide specimens containing 1,2, and 6% by weight respectively of the inhibitor and the pH was adjusted to pH 7.5 with sodium hydroxide.
Four groups (eight animals in each group) of male intact Golden Syrian hamsters were provided. These animals were considered acceptable models for human beard hair growth in that they display oval shaped flank organs, one on each side, each about 8 mm. in major diameter, which grow thick black and coarse hair similar to human beard hair. These organs produce hair in response to androgens in the hamster. The flank organs of each hamster were depilated by applying a thioglycolate- based chemical depilatory (Surgex), and to one organ of each animal was applied 10-25 mg. of vehicle alone once a day, while to the other organ of each animal was applied an equal amount of vehicle containing inhibitor. After three weeks of such applications (five days a week), the flank organs were shaved and the amount of recovered hair (hair mass) from each was weighed. The extent of reduction in hair growth by the inhibitor was expressed as the percent decrease in hair mass on the organ treated with inhibitor as compared to the organ treated with vehicle alone. As a control, one group of eight animals had both flank organs of each animal treated with vehicle alone.
A composition was prepared containing 5% by weight of bromsulphalein disodium in the vehicle described in Example I above, and applied to hamster flank organs under the same conditions as described in Example 1.
The anthglutin prepared as described above was dissolved in specimens of the vehicle described in Example 1 and applied to the flank organs of groups of hamsters in the same manner as described in Example 1, a group of eight animals being used for each different composition.

[2] = system: follicle enzyme; experiment: Inhibition of follicle enzyme activity after topical treatment over three weeks; type: in vivo, Golden Syrian hamsters; settings: 6% solution, three week period
[3] = system: gamma-glutamyl transpeptidase; settings: Japanese Patent No. 53-127,432; Minato, Archives Biochem. Biophy., Vol. 192, 235-240 (1979); cited from earlier work
[4] = system: hair follicle gamma-glutamyl transpeptidase; experiment: Inhibition of hair follicle gamma-glutamyl transpeptidase activity; type: biochemical

Structure (SMILES): N[C@H](C(=O)O)[C@@H]1CC(Cl)=NO1 [Acivicin, (alpha S,5S)-amino-3-chloro-4,5-dihydro-isoxazole acetic acid]
Percent Inhibition (of hair mass vs vehicle-treated organ) ([1]; acivicin 1.0%, topical): 18.2%
Hamster Flank Organ Hair Mass, Treated (mean) ([1]; acivicin 1.0%, topical, contralateral vehicle organ 1.04 mg): 0.85 mg
Percent Inhibition (of hair mass vs vehicle-treated organ) ([1]; acivicin 2.0%, topical): 57.9%
Hamster Flank Organ Hair Mass, Treated (mean) ([1]; acivicin 2.0%, topical, contralateral vehicle organ 1.33 mg): 0.56 mg
Percent Inhibition (of hair mass vs vehicle-treated organ) ([1]; acivicin 6.0%, topical): 81.0%
Hamster Flank Organ Hair Mass, Treated (mean) ([1]; acivicin 6.0%, topical, contralateral vehicle organ 0.79 mg): 0.15 mg
character of hair on the treated organ vs untreated organ ([1]; topical acivicin): more vellus in nature
inhibition of follicle enzyme activity [2]: about 87%

inhibition of the activity / inhibitory affinity for hair follicle gamma-glutamyl transpeptidase [4]: strong inhibitory affinity
Structure (SMILES): N[C@@H](CCC(=O)NNc1ccccc1C(=O)O)C(=O)O [Anthglutin, 1-gamma-L-glutamyl-2 (2-carboxyphenyl)-hydrazine]
Percent Inhibition (of hair mass vs vehicle-treated organ) ([1]; anthglutin 0.5%, topical): 10.7%
Hamster Flank Organ Hair Mass, Treated (mean) ([1]; anthglutin 0.5%, topical, contralateral vehicle organ 2.03 mg): 1.81 mg
Percent Inhibition (of hair mass vs vehicle-treated organ) ([1]; anthglutin 1.0%, topical): 16.7%
Hamster Flank Organ Hair Mass, Treated (mean) ([1]; anthglutin 1.0%, topical, contralateral vehicle organ 1.92 mg): 1.60 mg
Percent Inhibition (of hair mass vs vehicle-treated organ) ([1]; anthglutin 2.0%, topical): 38.6%
Hamster Flank Organ Hair Mass, Treated (mean) ([1]; anthglutin 2.0%, topical, contralateral vehicle organ 2.57 mg): 1.58 mg
Percent Inhibition (of hair mass vs vehicle-treated organ) ([1]; anthglutin 6.0%, topical): 67.2%
Hamster Flank Organ Hair Mass, Treated (mean) ([1]; anthglutin 6.0%, topical, contralateral vehicle organ 2.26 mg): 0.74 mg
inhibition of gamma-glutamyl transpeptidase [3]: specific inhibitor of gamma-glutamyl transpeptidase

Structure (SMILES): O=C1OC(c2ccc(O)c(S(=O)(=O)O)c2)(c2ccc(O)c(S(=O)(=O)O)c2)c2c(Br)c(Br)c(Br)c(Br)c21 [bromsulphalein disodium, 5,5'-(4,5,6,7-tetrabromo-3-oxo-1(3H)-isobenzofuranylidene) bis[2-hydroxybenzenesulfonic acid]]
inhibition of hair mass ([1]; 5% by weight bromsulphalein disodium, topical): 32%
